Series [1] relates to SCC9 (OSCC cell). The series is described as follows: MTT cell viability assay (cytotoxicity), SCC9. It counts as cell-based, human. Particulars: for IC50: Homo sapiens, read-out: SCC9—Oral Cancer IC50; for SCC9 S.I.: IC50 normal oral fibroblasts / IC50 SCC9. Here is the method:
(§1) Cells and reagents. Human SCC-4, SCC-9, and SCC-25 cells, derived from a human oral tongue SCC (squamous cell carcinoma) were obtained from the ATCC (CRL-1624, CRL-1629, and CRL-1628, respectively) and maintained in 1:1 DMEM/F12 (Dulbecco’s modified Eagle medium and Ham’s F12 medium; Gibco (Thermo Fisher, Waltham, MA, USA)) supplemented with 10% (v/v) FBS (fetal bovine serum; Invitrogen, Thermo Fisher, Waltham, MA, USA) and 400 ng/mL hydrocortisone (Sigma-Aldrich Co., St. Louis, MO, USA). Primary normal human gingival fibroblasts were obtained from the ATCC (PCS-201-018) and maintained in DMEM supplemented with 10% (v/v) FBS and were used in a maximum of six passages. The cells were grown in a humidified environment containing 5% CO2 at 37 °C. […] Carboplatin stock was prepared in water (Fauldcarbo®; LibbsFarmacêutica, São Paulo, SP, Brazil) and was used as a standard anticancer compound.
(§2) Cell viability assay (cytotoxicity) and compound stability assay. The viability of SCC cell lines and primary human fibroblast cells was evaluated using the MTT assay as in [48]. Briefly, the cells were grown in triplicates in 96-well plates (5 × 10^3 cells/well) until confluence. Then, the medium was removed, fresh medium was added, and the cells were returned to the incubator in the presence of different compounds. DMSO at the same concentrations was used as a 100% cell viability control. After 48 h, the cells were incubated with 5 mg/mL MTT reagent (3-(4,5-dimethyl-2-thiazolyl)-2,5-diphenyl-2-H-tetrazolium bromide) (Sigma-Aldrich Co., St. Louis, MO, USA) for 3.5 h. After that, formazan crystals were dissolved in MTT solvent solution (DMSO/methanol 1:1 v/v) and the absorbance at 560 nm was evaluated using an EPOCH microplate spectrophotometer (BioTek Instruments, Winooski, VT, USA) with the background absorbance at 670 nm subtracted.
(§3) Statistical analysis, IC50 calculation. The data are presented as means ±\SD. IC50 values for the MTT assays were obtained by nonlinear regression using the […] 5.0 program (Intuitive Software for Science, San Diego, CA, USA) from at least three independent experiments. A dose–response (inhibitor) vs. response curve using the least squares method was used to determine the IC50, SD, and R^2 of the data. The selectivity index was calculated as SI = IC50 of the compound in normal oral fibroblast cells/IC50 of the same compound for each oral cancer cell line (SCC-4, SCC-9, and SCC-25) and the mean was calculated when indicated.
Background: Formazan colour is commonly taken as a measure of viable cells.

For series [2], the system named is SCC25 OSCC cell line. The experiment in a line: MTT cell viability assay (cytotoxicity), SCC25. It counts as cell-based, human. As to conditions: for IC50: Homo sapiens, read-out: Oral Tumor Cells SCC25 IC50; for SCC25 S.I.: IC50 normal oral fibroblasts / IC50 SCC25. As for the experimental part:
as §1, §2, §3

Series [3] deals with SCC4 OSCC cell line. The experiment in a line: MTT cell viability assay (cytotoxicity), SCC4. It counts as cell-based, human. As to conditions: for IC50: Homo sapiens, read-out: Oral Tumor Cells SCC4 IC50; for SCC4 S.I.: IC50 normal oral fibroblasts / IC50 SCC4. As for the experimental part:
as §1, §2, §3

Series [4] in a line: MTT cell viability assay, normal fibroblasts. As to conditions: human, primary normal human gingival fibroblasts (ATCC PCS-201-018). The series is classed as cell-based, human. As for the experimental part:
as §1, §2, §3

In series [5] the test system is Primary normal human gingival fibroblasts. The experiment in a line: MTT cell viability assay, normal fibroblasts. It counts as cell-based. Particulars: Homo sapiens, Fibroblast, 48 h, read-out: Primary Gingival Fibroblast IC50. Here is the method:
as §1, §2, §3

The mark [6] stands for this setting: SCC-9, SCC9, 48 h, MTT (Table 1).
[7] abbreviates: primary gingival fibroblasts, MTT.

The text below walks through data of article PMC9415509, “Pro-Apoptotic Antitumoral Effect of Novel Acridine-Core Naphthoquinone Compounds against Oral Squamous Cell Carcinoma” (Molecules, 2022).

In general, IC50 refers to the concentration that inhibits the measured activity by half. A word on the viability: it is the share of living cells, or the viability signal relative to a control. A higher viability goes with better survival. Broadly, the melting point is the temperature, or range, at which the solid turns liquid.

Read-outs that look alike come from different tables or passages of the source.

`COc1cc(C2C3=C(CC(C)(C)CC3=O)NC3=C2C(=O)c2ccccc2C3=O)cc(OC)c1OC` (centres unmarked) [4m, 12-(3,4,5-trimethoxyphenyl)-3,3-dimethyl-3,4-dihydrobenzo[b]acridine-1,6,11(2H,5H,12H)-trione] registered a melting point of 242 to 243 °C. Further, the IC50 in series [1] (setting [6]) was 2.06 µM. The “SCC9 S.I.” value in series [1] came to 3.8. In series [2] (SCC-25, SCC25, 48 h, MTT), the IC50 was determined as 7.41 µM. Also, the “SCC25 S.I.” value in series [2] is on record as 1.1. Besides, the IC50 in series [3] (SCC-4, SCC4, 48 h, MTT) worked out at 11 µM. Besides, the “SCC4 S.I.” value in series [3] is 0.7. For the same molecule, the viability at 48 h in series [4] is more than 75%. Moreover, in series [5] (setting [7]), the IC50 was 7.86 µM.
As for `COc1cccc2c1C(=O)c1c(O)c3c(c(O)c1C2=O)C[C@@](O)(C(=O)CO)C[C@@H]3O[C@H]1C[C@H](N)[C@H](O)[C@H](C)O1` [Doxorubicin, doxorubicin], the IC50 was found to be 7.8 µM in series [1] (setting [6]); 1.27 µM in series [2] (SCC-25, SCC25, 48 h, MTT); 4.56 µM in series [3] (SCC-4, SCC4, 48 h, MTT); 12.3 µM in series [5] (setting [7]). For the same molecule, the “SCC9 S.I.” value in series [1] was found to be 1.6. Further, in series [2], the “SCC25 S.I.” value was found to be 9.7. In series [3], the “SCC4 S.I.” value is given as 2.7.
As for `CC(C)=CC[C@@H](O)C1=CC(=O)c2c(O)ccc(O)c2C1=O` [Shikonin, shikonin], the IC50 in series [1] (SCC-9, 48 h) came out at 1.22 µM; in series [2] (SCC-25, 48 h), 2.47 µM; in series [3] (SCC-4, 48 h), 3.19 µM; in series [5], 2.48 µM. In series [1], the “SCC9 S.I.” value is given as 2.0. Also, the “SCC25 S.I.” value in series [2] came to 1.0. The “SCC4 S.I.” value in series [3] is 0.8.
`COc1ccc(C2C3=C(CC(C)(C)CC3=O)NC3=C2C(=O)c2ccccc2C3=O)c(OC)c1` (centres unmarked) [4j, 12-(2,4-dimethoxyphenyl)-3,3-dimethyl-3,4-dihydrobenzo[b]acridine-1,6,11(2H,5H,12H)-trione] had a melting point of 250 to 251 °C. Besides, the IC50 in series [1] (setting [6]) came to 4.1 µM. In series [1], the “SCC9 S.I.” value was 5.7. For the same molecule, the IC50 in series [2] (SCC-25, SCC25, 48 h, MTT) was found to be 11.5 µM. For the same molecule, in series [2], the “SCC25 S.I.” value stood at 2.0. The IC50 in series [3] (SCC-4, SCC4, 48 h, MTT) is 18.9 µM. Moreover, the “SCC4 S.I.” value in series [3] came out at 1.2. The viability at 48 h in series [4] was more than 75%. In addition, the IC50 in series [5] (setting [7]) stood at 23.6 µM.
